Test results: US20070053841A1, “USE OF 1,1,1,2-TETRAFLUOROETHANE FOR MEASURING LUNG FUNCTION, ESPECIALLY FOR DETERMINING THE FUNCTIONAL RESIDUAL CAPACITY (FRC) OF THE LUNGS” (Drager Medical AG & Co. KG, priority 2005, published 2007)

Experiment: blood-gas partition coefficient L (solubility of the gas in the blood)
Assay type: physicochemical
Details: gas 1 = R 134a, gas 2 = R 227; equilibrium between gas dissolved in blood and gas phase
Procedure: The solubility of gases in the blood can be described by the blood-gas partition coefficient L, which describes the ratio of the volume percentages between gas dissolved in the blood and gas present in the gas phase. The prerequisite for this is the presence of an equilibrium with identical partial pressures of the gas in the phase in which it is dissolved in the blood and in the gas phase. Lowest possible solubility of the tracer gas in the blood is desirable for the lung function diagnostic tests and especially for the determination of the FRC, because what we wish to ultimately determine is the lung volume rather than the quantity of blood in the body. By using at least two gases with different solubilities in blood, the FRC measurement can be corrected with respect to the solubility in blood. The subscripts 1 and 2 below designate the two gases, which may stand, e.g., for R 134a and R 227. It can be assumed below, without restricting the generality, that L1>L2, so that the FRC measured with gas 1 (for example, R 134a) will be greater than that determined with gas 2 (for example, R 227). The blood volume can be determined from the difference of the FRC values: [formula] […] In case of R 134a and R 227, the coefficient L1/L2 is approx. 4, so that the measured difference in FRC is divided by 3.

coefficient L1/L2 (ratio of blood-gas partition coefficients): approx. 4
Compound: FCC(F)(F)F [R 134a, 1,1,1,2-tetrafluoroethane]
